{"source": "paper PMC6514771", "about": "“A Stapled Peptide Mimic of the Pseudosubstrate Inhibitor PKI Inhibits Protein Kinase A” (Molecules, 2019)", "key": {"[1]": {"biological_target": "human PKA catalytic isoform Cα (PKA-Cα) (Homo sapiens, UniProt P17612)", "assay": "Fluorescence polarization (FP) direct binding", "conditions": "FAM-labeled negative control peptide; three independent measurements with three protein preparations"}, "[2]": {"biological_target": "human PKA catalytic isoform Cβ1 (PKA-Cβ1) (Homo sapiens, UniProt P22694)", "assay": "Fluorescence polarization (FP) direct binding", "conditions": "FAM-labeled negative control peptide; three independent measurements with three protein preparations"}}}
{"substance": "βA-TTY*DFI*SGRTGFFNAIHD (sidechain bridge or staple) [negative control peptide]", "values": [{"measurement": "binding to PKA-Ca (FP)", "setting": "[1]", "result": "No binding"}, {"measurement": "binding to PKA-Cb (FP)", "setting": "[2]", "result": "No binding"}]}
